From US20240360114A1 (SIRONAX LTD., priority 2021, published 2024)

Tested on: HT-1080 cells
Experiment: HT-1080 cell viability assay (ferroptosis induced by RSL3, Cell Titer-Glo)
Assay type: cell-based
Conditions: Homo sapiens, HT-1080, 20 h, ferroptosis inducer RSL3, 20 hours, ferroptosis inhibitory activity, Table 2
Outline: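 Cells seeded overnight, then co-treated with RSL3 and compound (3-fold, 10-point dilution, top 1.1 μM) for 20 hours. Viability by CellTiter-Glo luminescence, normalized to untreated controls; EC50 from sigmoidal non-linear regression.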

Row | EC50 | Structure (SMILES)
1 | 0.1 to 100 nM | CC1CC(C)CN(c2ncc(NC3CC4(CC(NC(=O)C(N)=O)C4)C3)cn2)C1 (centres unmarked) [Compound 425, N1-(6-((2-(3,5-dimethylpiperidin-1-yl)pyrimidin-5-yl)amino)spiro[3.3]heptan-2-yl)oxalamide]
2 | 1000 to 10000 nM | CC(C)(C)c1ccc(NC2CCC(C[N+](C)(C)C)CC2)cc1 (centres unmarked) [Compound 258, 1-(4-((4-(tert-butyl)phenyl)amino)cyclohexyl)-N,N,N-trimethylmethanaminium]
3 | 100 to 1000 nM | Cc1nc(N2CCC(N3C[C@@H](C)O[C@@H](C)C3)CC2)ccc1NC1CC2(CC(N)C2)C1 (stereo partly drawn) [Compound 537, N2-(6-(4-((2S,6R)-2,6-dimethylmorpholino)piperidin-1-yl)-2-methylpyridin-3-yl)spiro[3.3]heptane-2,6-diamine]
4 | 0.1 to 100 nM | CC(C)(C)c1ccc(NC2C3CC4CC2CC(CN)(C4)C3)cc1 (centres unmarked) [Compound 98, 5-(aminomethyl)-N-(4-(tert-butyl)phenyl)adamantan-2-amine]
5 | 100 to 1000 nM | CC(C)(C)c1ccc(NC2CCC(CNC(=O)[C@H]3CNC(=O)N3)CC2)cc1 (single isomer, unassigned) [Compound 143A]
6 | 1000 to 10000 nM | NC1CCC(Nc2ccc(F)cc2)CC1 (centres unmarked) [Compound 134, N1-(4-fluorophenyl)cyclohexane-1,4-diamine]
7 | 0.1 to 100 nM | CC1(C)CCC(c2ccc(NC3CCC(NC(=O)[C@H]4CNC(=O)N4)CC3)cc2)CC1 (single isomer, unassigned) [Compound 156A]
8 | 0.1 to 100 nM | NC1CCC(Nc2ccc3nc(N4CCC(C(F)(F)F)CC4)cnc3c2)CC1 (centres unmarked) [Compound 573, N1-(2-(4-(trifluoromethyl)piperidin-1-yl)quinoxalin-6-yl)cyclohexane-1,4-diamine]
9 | 100 to 1000 nM | CCCC1CN(c2ncc(NC3CCC(N)CC3)cn2)C1 (centres unmarked) [Compound 46, N1-(2-(3-propylazetidin-1-yl)pyrimidin-5-yl)cyclohexane-1,4-diamine]
10 | 0.1 to 100 nM | NCC1CCC(Nc2ccc(N3CCC(C(F)(F)F)CC3)nc2)CC1 (centres unmarked) [Compound 21, N-(4-(aminomethyl)cyclohexyl)-6-(4-(trifluoromethyl)piperidin-1-yl)pyridin-3-amine]
11 | 100 to 1000 nM | CC1(C)CCC(c2ccc(NC3CCN(C(=O)[C@H]4CNC(=O)N4)CC3)cc2)CC1 [Compound 154, (R)-4-(4-((4-(4,4-dimethylcyclohexyl)phenyl)amino)piperidine-1-carbonyl) imidazolidin-2-one]
12 | 0.1 to 100 nM | CC1CCN(c2ncc(NC3C4CC5CC3CC(C(N)=O)(C5)C4)cn2)CC1 (centres unmarked) [Compound 405, 4-((2-(4-methylpiperidin-1-yl)pyrimidin-5-yl)amino)adamantane-1-carboxamide]
13 | 1000 to 10000 nM | CC(C)C1CCN(c2ncc(NC34CC(N)(C3)C4)cn2)CC1 [Compound 434, N1-(2-(4-isopropylpiperidin-1-yl)pyrimidin-5-yl)bicyclo[1.1.1]pentane-1,3-diamine]
14 | 100 to 1000 nM | CC1(C)CCC(c2ccc(NC(C)(C)CN3CCCC3)cc2)CC1 [Compound 203, 4-(4,4-dimethylcyclohexyl)-N-(2-methyl-1-(pyrrolidin-1-yl)propan-2-yl)aniline]
15 | 0.1 to 100 nM | COCCOc1cc(NC2CCC(N)CC2)ccc1N1CCC(C(F)(F)F)CC1 (centres unmarked) [Compound 473, N1-(3-(2-methoxyethoxy)-4-(4-(trifluoromethyl)piperidin-1-yl)phenyl)cyclohexane-1,4-diamine]
16 | 0.1 to 100 nM | NC1CCC(Nc2ccc(Oc3ccccc3)cc2)CC1 (centres unmarked) [Compound 239, N1-(4-phenoxyphenyl)cyclohexane-1,4-diamine]
17 | 0.1 to 100 nM | CCC1CCN(c2ccc(NC3CCC(N)CC3)cc2)CC1 (centres unmarked) [Compound 61, N1-(4-(4-ethylpiperidin-1-yl)phenyl)cyclohexane-1,4-diamine]
18 | 100 to 1000 nM | CC(C)(C)c1ccc(NC2CCC(C(N)=O)CC2)cc1 (centres unmarked) [Compound 192, 4-((4-(tert-butyl)phenyl)amino)cyclohexane-1-carboxamide]

Row | EC50 | Structure (SMILES)
19 | 0.1 to 100 nM | CC1CC(C)CN(c2ccc(NC[C@H]3CC[C@H](N)CC3)cc2)C1 (some centres unmarked) [Compound 522, N-(((1r,4r)-4-aminocyclohexyl)methyl)-4-(3,5-dimethylpiperidin-1-yl)aniline]
20 | 0.1 to 100 nM | CC1(C)CCC(c2ccc(NC3CCC(NC(=O)[C@H]4CNC(=O)N4)CC3)cc2)CC1 (some centres unmarked) [Compound 156C]
21 | 0.1 to 100 nM | Cc1nc(N2CCC(C(F)(F)F)CC2)ccc1NC1CC2(CC(N)C2)C1 (centres unmarked) [Compound 376, N2-(2-methyl-6-(4-(trifluoromethyl)piperidin-1-yl)pyridin-3-yl) spiro[3.3]heptane-2,6-diamine]
22 | 0.1 to 100 nM | Cc1nc(N2CCC(C)(C)CC2)ccc1NC1CCC(CN)CC1 (centres unmarked) [Compound 32A, N-(4-(aminomethyl)cyclohexyl)-6-(4,4-dimethylpiperidin-1-yl)-2-methylpyridin-3-amine]
23 | 0.1 to 100 nM | CC1(C)CCC(c2ccc(NC3CCNCC3)cc2)CC1 [Compound 131, N-(4-(4,4-dimethylcyclohexyl)phenyl)piperidin-4-amine]
24 | 0.1 to 100 nM | Cc1nc(N2CC(C)(C)OC(C)(C)C2)ccc1NC1CC2(CC(N)C2)C1 (centres unmarked) [Compound 515, N2-(2-methyl-6-(2,2,6,6-tetramethylmorpholino)pyridin-3-yl)spiro[3.3]heptane-2,6-diamine]
25 | 1000 to 10000 nM | CN1CCN(CC(=O)N2CCC(Nc3ccc(C(C)(C)C)cc3)CC2)C(=O)C1 [Compound 245, 1-(2-(4-((4-(tert-butyl)phenyl)amino)piperidin-1-yl)-2-oxoethyl)-4-methylpiperazin-2-one]
26 | 0.1 to 100 nM | NC1CC2(C1)CC(Nc1ccc(N3CCC(C(F)(F)F)CC3)cc1)C2 (centres unmarked) [Compound 357, N2-(4-(4-(trifluoromethyl)piperidin-1-yl)phenyl)spiro[3.3]heptane-2,6-diamine]
27 | 0.1 to 100 nM | CC(C)Oc1ccc(NC[C@H]2CC[C@H](N)CC2)cc1 [Compound 353, N-(((1r,4r)-4-aminocyclohexyl)methyl)-4-isopropoxyaniline]
28 | 0.1 to 100 nM | NC1CCC(Nc2cc(F)c(N3CCC(C(F)(F)F)CC3)c(F)c2)CC1 (centres unmarked) [Compound 54A, N1-(3,5-difluoro-4-(4-(trifluoromethyl)piperidin-1-yl)phenyl)cyclohexane-1,4-diamine]
29 | 0.1 to 100 nM | CCOC1CCN(c2ccc(NC3CC4(CC(N)C4)C3)c(C)c2)CC1 (centres unmarked) [Compound 471, N2-(4-(4-ethoxypiperidin-1-yl)-2-methylphenyl)spiro[3.3]heptane-2,6-diamine]
30 | 0.1 to 100 nM | CC(C)C1CCN(c2ncc(NC[C@H]3CC[C@H](N)CC3)cn2)CC1 [Compound 360, N-(((1r,4r)-4-aminocyclohexyl)methyl)-2-(4-isopropylpiperidin-1-yl)pyrimidin-5-amine]
31 | 0.1 to 100 nM | CC1(C)CCC(c2ccc(NC3CCC(NS(N)(=O)=O)CC3)cc2)CC1 (centres unmarked) [Compound 249, N-(4-{[4-(4,4-dimethylcyclohexyl)phenyl]amino}cyclohexyl)aminosulfonamide]
32 | 0.1 to 100 nM | CC(C)(C)c1ccc(NCC2CCC(CN)C2)cc1 (centres unmarked) [Compound 340, N-((3-(aminomethyl)cyclopentyl)methyl)-4-(tert-butyl)aniline]
33 | 0.1 to 100 nM | CCC(C)(C)c1ccc(NC2CC(N)C2)cc1 (centres unmarked) [Compound 273, N1-(4-(tert-pentyl)phenyl)cyclobutane-1,3-diamine]
34 | 0.1 to 100 nM | CC1(C)CCN(c2ncc(NC3CCC(N)CC3)cn2)CC1 (centres unmarked) [Compound 45, N1-(2-(4,4-dimethylpiperidin-1-yl)pyrimidin-5-yl)cyclohexane-1,4-diamine]
35 | 100 to 1000 nM | CC1CN(c2cc(F)c(NC[C@H]3CC[C@H](N)CC3)cc2F)CC(C)O1 (some centres unmarked) [Compound 481, N-(((1r,4r)-4-aminocyclohexyl)methyl)-4-(2,6-dimethylmorpholino)-2,5-difluoroaniline]
36 | 100 to 1000 nM | CC1(C)CCC(c2ccc(NCCN3CCCC3=O)cc2)CC1 [Compound 104, 1-(2-((4-(4,4-dimethylcyclohexyl)phenyl)amino)ethyl) pyrrolidin-2-one]

Row | Structure (SMILES) | EC50
37 | COCCCCOc1cc(NC2CCC(N)CC2)ccc1N1CCC(C(F)(F)F)CC1 (centres unmarked) [Compound 39, N1-(3-(4-methoxybutoxy)-4-(4-(trifluoromethyl)piperidin-1-yl)phenyl)cyclohexane-1,4-diamine] | 0.1 to 100 nM

Same assay, conditions: Homo sapiens, HT-1080, 20 h, ferroptosis inducer RSL3, 20 hours, ferroptosis inhibitory activity, Table 3

Row | EC50 | Structure (SMILES)
38 | 0.1 to 100 nM | CCCNc1ccc2cc(NC3CC4(CC(N)C4)C3)ccc2c1 (centres unmarked) [Compound 651, N^2-(6-aminospiro [3.3]heptan-2-yl)-N^6-propylnaphthalene-2,6-diamine]
39 | 0.1 to 100 nM | Cc1cc(NC[C@H]2CC[C@H](N)CC2)ccc1NC(C)(C)C [Compound 622, N^4-(((1r,4r)-4-aminocyclohexyl)methyl)-N′-(tert-butyl)-2-methylbenzene-1,4-diamine]
40 | 0.1 to 100 nM | CC1CN(c2ccc(NC3CC4(CC(N)C4)C3)c(F)n2)CC(C)N1CC(F)(F)F (centres unmarked) [Compound 579, N2-(6-(3,5-dimethyl-4-(2,2,2-trifluoroethyl)piperazin-1-yl)-2-fluoropyridin-3-yl)spiro[3.3]heptane-2,6-diamine]
41 | 0.1 to 100 nM | Cc1cc(NC(C)(C)C)ccc1NC[C@H]1CC[C@H](N)CC1 [Compound 597, N^1-(((1r,4r)-4-aminocyclohexyl)methyl)-N^4-(tert-butyl)-2-methylbenzene-1,4-diamine]
42 | 0.1 to 100 nM | CC1CN(c2ccc3cc(N[C@H]4CC[C@@H](C(N)=O)CC4)ccc3c2)CC(C)O1 (some centres unmarked) [Compound 632, (1s,4s)-4-((6-(2,6-dimethylmorpholino)naphthalen-2-yl)amino)cyclohexane-1-carboxamide]
43 | 0.1 to 100 nM | CNC1CC2(C1)CC(Nc1ccc(N3C[C@@H](C)O[C@@H](C)C3)nc1C)C2 (stereo partly drawn) [Compound 605, N^2-(6-((2R,6S)-2,6-dimethylmorpholino)-2-methylpyridin-3-yl)-N^6-methylspiro [3.3]heptane-2,6-diamine]

Same assay, conditions: Homo sapiens, ferroptosis inducer RSL3, 20 hours, ferroptosis inhibitory activity, Table 2

Row | Structure (SMILES) | EC50
44 | NC(=O)[C@@H]1CCC(Nc2ccc(N3CCC(C(F)(F)F)CC3)cc2)[C@@H](N)C1 (stereo in doubt) [Compound 502, (1R,3S)-3-amino-4-((4-(4-(trifluoromethyl)piperidin-1-yl)phenyl)amino)cyclohexane-1-carboxamide] | 0.1 to 100 nM
